24 molecules from patent US20160130278A1 (TAISHO PHARMACEUTICAL CO., LTD, priority 2013, published 2016) can be followed below.

This experiment has as its target T1, human type 1 glycine transporter (GlyT1) (Homo sapiens, UniProt P48067).
T1 construct: T98G cells (glioma cells) expressing human type 1 glycine transporter (GlyT1) were used
T1 sequence (P48067 1-706): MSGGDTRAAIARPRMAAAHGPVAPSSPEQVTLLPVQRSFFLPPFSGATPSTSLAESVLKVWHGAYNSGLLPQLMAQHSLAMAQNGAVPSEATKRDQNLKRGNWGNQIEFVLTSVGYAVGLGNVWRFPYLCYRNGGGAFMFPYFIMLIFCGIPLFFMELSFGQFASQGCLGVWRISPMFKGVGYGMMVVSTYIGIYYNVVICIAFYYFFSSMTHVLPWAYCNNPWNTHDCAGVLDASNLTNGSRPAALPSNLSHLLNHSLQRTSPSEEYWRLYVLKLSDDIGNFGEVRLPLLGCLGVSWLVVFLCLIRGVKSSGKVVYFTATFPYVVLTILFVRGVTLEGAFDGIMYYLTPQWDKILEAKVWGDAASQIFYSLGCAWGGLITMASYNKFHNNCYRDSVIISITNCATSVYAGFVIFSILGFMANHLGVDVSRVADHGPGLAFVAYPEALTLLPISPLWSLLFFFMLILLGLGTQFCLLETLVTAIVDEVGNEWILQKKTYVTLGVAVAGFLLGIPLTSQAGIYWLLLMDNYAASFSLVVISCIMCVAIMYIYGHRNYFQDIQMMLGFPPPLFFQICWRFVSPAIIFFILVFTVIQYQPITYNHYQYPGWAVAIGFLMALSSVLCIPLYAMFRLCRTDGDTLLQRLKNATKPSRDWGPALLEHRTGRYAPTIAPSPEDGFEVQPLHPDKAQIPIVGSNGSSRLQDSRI
The experiment in a line: Glycine uptake inhibition experiment ([3H]glycine uptake). As to conditions: GlyT1. Format: cell-based. The gist of the method: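 T98G glioma cells expressing human GlyT1 were pretreated 10 min with compound in HEPES buffer pH 7.4 (0.2% BSA), then incubated with compound plus 250 nM final [3H]glycine for 15 min at room temperature. Intracellular radioactivity was counted after NaOH lysis; 10 μM ALX5407 defined non-specific uptake. IC50 came from 10^−9–10^−5 M curves.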
`O=C(NC(c1cccc(F)c1Cl)[C@]1(O)CC[C@@H](F)CC1)c1ccccc1-n1cnnn1` (single isomer, unassigned) [Compound 270, N-[(2-chloro-3-fluorophenyl)(cis-4-fluoro-1-hydroxycyclohexyl)methyl]-2-(1H-tetrazol-1-yl)benzamide] returned an IC50 of 2400 nM.

On to `O=C(NC(c1cccc(F)c1Cl)[C@]1(O)CC[C@@H](F)CC1)c1nsc(Cl)c1Cl` (single isomer, unassigned) [Compound 271, 4,5-dichloro-N-[(2-chloro-3-fluorophenyl)(cis-4-fluoro-1-hydroxycyclohexyl)methyl]-1,2-thiazol-3-carboxamide], for which the midpoint of inhibition, the IC50, lay at 1100 nM.

Take `Cn1nc(C(F)(F)F)cc1C(=O)NC(c1cccc(F)c1Cl)[C@]1(O)CC[C@@H](F)CC1` (single isomer, unassigned) [Compound 272, N-[(2-chloro-3-fluorophenyl)(cis-4-fluoro-1-hydroxycyclohexyl)methyl]-1-methyl-3-(trifluoromethyl)-1H-pyrazole-5-carboxamide]: the IC50 came out at 2500 nM.

The molecule `O=C(NC(c1cccnc1Cl)[C@]1(O)CC[C@@H](F)CC1)c1nccc(C(F)(F)F)c1Cl` (single isomer, unassigned) [Compound 273, 3-chloro-N-[(2-chloropyridin-3-yl)(cis-4-fluoro-1-hydroxycyclohexyl)methyl]-4-(trifluoromethyl)pyridine-2-carboxamide] displayed a 50% inhibitory concentration (IC50) of 330 nM. Compared with the last molecule, the IC50 is about 7.6-fold lower.

With `O=C(NC(c1cccc(Cl)n1)[C@]1(O)CC[C@@H](F)CC1)c1nccc(C(F)(F)F)c1Cl` (single isomer, unassigned) [Compound 274, 3-chloro-N-[(6-chloropyridin-2-yl)(cis-4-fluoro-1-hydroxycyclohexyl)methyl]-4-(trifluoromethyl)pyridine-2-carboxamide], the IC50 amounted to 77 nM.

In turn, `O=C(NC(c1cccc(F)c1Cl)[C@]1(O)CC[C@@H](F)CC1)c1cccc2ccncc12` (single isomer, unassigned) [Compound 275, N-[(2-chloro-3-fluorophenyl)(cis-4-fluoro-1-hydroxycyclohexyl)methyl]isoquinoline-8-carboxamide] displayed an IC50 of 1600 nM. Compared with the last molecule, the IC50 is about 21-fold higher.

For the molecule `O=C(NC(c1cccc(F)c1Cl)[C@]1(O)CC[C@@H](F)CC1)c1ccccc1C(F)(F)F` (single isomer, unassigned) [Compound 276, N-[(2-chloro-3-fluorophenyl)(cis-4-fluoro-1-hydroxycyclohexyl)methyl]-2-(trifluoromethyl)benzamide], the midpoint of inhibition, the IC50, lay at 1600 nM.

`O=C(NC(c1ccc(Cl)nc1)C1(O)CCC(F)(F)CC1)c1nccc(C(F)(F)F)c1Cl` (single isomer, unassigned) [Compound 277, 3-chloro-N-[(6-chloropyridin-3-yl)(4,4-difluoro-1-hydroxycyclohexyl)methyl]-4-(trifluoromethyl)pyridine-2-carboxamide] displayed an IC50 of 640 nM.

`O=C(NC(c1ccc(Cl)nc1)C1(O)CCC(F)(F)CC1)c1nccc(C(F)(F)F)c1Cl` (single isomer, unassigned) [Compound 278, 3-chloro-N-[(6-chloropyridin-3-yl)(4,4-difluoro-1-hydroxycyclohexyl)methyl]-4-(trifluoromethyl)pyridine-2-carboxamide]: it took 2700 nM to reach half-maximal inhibition (IC50). Against the preceding molecule, the IC50 is about 4.2-fold higher.

`O=C(NC(c1cccc(F)c1Cl)[C@]1(O)CC[C@@H](F)CC1)c1nc(Cl)ccc1Cl` (single isomer, unassigned) [Compound 279, 3,6-dichloro-N-[(2-chloro-3-fluorophenyl)(cis-4-fluoro-1-hydroxycyclohexyl)methyl]pyridine-2-carboxamide] yielded an IC50 of 3900 nM.

On to `O=C(NC(c1cccc(F)c1Cl)[C@]1(O)CC[C@@H](F)CC1)c1cc(C(F)(F)F)ncc1Cl` (single isomer, unassigned) [Compound 280, 5-chloro-N-[(2-chloro-3-fluorophenyl)(cis-4-fluoro-1-hydroxycyclohexyl)methyl]-2-(trifluoromethyl)pyridine-4-carboxamide], for which the IC50 turned out to be 150 nM.

`CS(=O)(=O)c1ccccc1C(=O)NC(c1cccc(F)c1Cl)[C@]1(O)CC[C@@H](F)CC1` (single isomer, unassigned) [Compound 281, N-[(2-chloro-3-fluorophenyl)(cis-4-fluoro-1-hydroxycyclohexyl)methyl]-2-(methylsulfonyl)benzamide] returned an IC50 of 2100 nM.

`O=C(NC(c1cccc(F)c1Cl)[C@]1(O)CC[C@@H](F)CC1)c1ccccc1OC(F)(F)F` (single isomer, unassigned) [Compound 282, N-[(2-chloro-3-flurophenyl)(cis-4-fluoro-1-hydroxycyclohexyl)methyl]-2-(trifluoromethoxy)benzamide] had an IC50 of 3400 nM.

Molecule `Cc1ccc(-n2nccn2)c(C(=O)NC(c2cccc(F)c2Cl)[C@]2(O)CC[C@@H](F)CC2)n1` (single isomer, unassigned) [Compound 283, N-[(2-chloro-3-fluorophenyl)(cis-4-fluoro-1-hydroxycyclohexyl)methyl]-6-methyl-3-(2H-1,2,3-triazol-2-yl)pyridine-2-carboxamide] came in with an IC50 of 1100 nM.

Molecule `Cc1ccc(-c2ncccn2)c(C(=O)NC(c2cccc(F)c2Cl)[C@]2(O)CC[C@@H](F)CC2)n1` (single isomer, unassigned) [Compound 284, N-[(2-chloro-3-fluorophenyl)(cis-4-fluoro-1-hydroxycyclohexyl)methyl]-6-methyl-3-(pyrimidin-2-yl)pyridine-2-carboxamide] gave an IC50 of 1900 nM.

The molecule `O=C(NC(c1cccc(F)c1Cl)[C@]1(O)CC[C@@H](F)CC1)c1ccc(Cl)cc1-n1nccn1` (single isomer, unassigned) [Compound 285, 4-chloro-N-[(2-chloro-3-fluorophenyl)(cis-4-fluoro-1-hydroxycyclohexyl)methyl]-2-(2H-1,2,3-triazol-2-yl)benzamide] displayed an IC50 of 2000 nM.

The molecule `O=C(NC(c1cc(Cl)ccn1)[C@]1(O)CC[C@@H](F)CC1)c1nccc(C(F)(F)F)c1Cl` (single isomer, unassigned) [Compound 286, 3-chloro-N-[(4-chloropyridin-2-yl)(cis-4-fluoro-1-hydroxycyclohexyl)methyl]-4-(trifluoromethyl)pyridine-2-carboxamide] gave an IC50 of 140 nM.

On to `Cc1cccc(C(=O)NC(c2cccc(F)c2Cl)[C@]2(O)CC[C@@H](F)CC2)c1Cl` (single isomer, unassigned) [Compound 287, 2-chloro-N-[(2-chloro-3-fluorophenyl)(cis-4-fluoro-1-hydroxycyclohexyl)methyl]-3-methylbenzamide], for which half-maximal inhibition (IC50) required 960 nM. This IC50 is about 6.9-fold higher than that of the molecule before.

`O=C(NC(c1cccc(F)c1Cl)[C@]1(O)CC[C@@H](F)CC1)c1cccc(F)c1Cl` (single isomer, unassigned) [Compound 288, 2-chloro-N-[(2-chloro-3-fluorophenyl)(cis-4-fluoro-1-hydroxycyclohexyl)methyl]-3-fluorobenzamide] yielded an IC50 of 1000 nM.

Molecule `COc1cccc(C(=O)NC(c2cccc(F)c2Cl)[C@]2(O)CC[C@@H](F)CC2)c1Cl` (single isomer, unassigned) [Compound 289, 2-chloro-N-[(2-chloro-3-fluorophneyl)(cis-4-fluoro-1-hydroxycyclohexyl)methyl]-3-methoxybenzamide] returned an IC50 of 1600 nM.

Molecule `O=C(NC(c1cccc(F)c1Cl)[C@]1(O)CC[C@@H](F)CC1)c1nc(C(F)(F)F)ccc1Cl` (single isomer, unassigned) [Compound 290, 3-chloro-N-[(2-chloro-3-fluorophenyl)(cis-4-fluoro-1-hydroxycyclohexyl)methyl]-6-(trifluoromethyl)pyridine-2-carboxamide] yielded a half-maximal inhibitory concentration (IC50) of 900 nM.

The molecule `O=C(NC(c1ccc(Cl)nc1)[C@]1(O)CC[C@@H](F)CC1)c1nccc(C(F)(F)F)c1Cl` (single isomer, unassigned) [Compound 291, 3-chloro-N-[(6-chloropyridin-3-yl)(cis-4-fluoro-1-hydroxycyclohexyl)methyl]-4-(trifluoromethyl)pyridine-2-carboxamide] displayed an IC50 of 890 nM. The IC50 values of the last two molecules are within 1.5-fold of each other.

In turn, `O=C(NC(c1cccc(F)c1Cl)[C@]1(O)CC[C@@H](F)CC1)c1cc(C(F)(F)F)ccc1Cl` (single isomer, unassigned) [Compound 292, 2-chloro-N-[(2-chloro-3-fluorophenyl)(cis-4-fluoro-1-hydroxycyclohexyl)methyl]-5-(trifluoromethyl)benzamide] yielded a half-inhibitory concentration (IC50) of 120 nM. This IC50 lies about 7.4-fold lower than the previous one.

The molecule `COc1ccc(Cl)c(C(=O)NC(c2cccc(F)c2Cl)[C@]2(O)CC[C@@H](F)CC2)c1` (single isomer, unassigned) [Compound 293, 2-chloro-N-[(2-chloro-3-fluorophenyl)(cis-4-fluoro-1-hydroxycyclohexyl)methyl]-5-methoxybenzamide] showed a half-inhibitory concentration (IC50) of 450 nM.

By IC50 is commonly meant the midpoint of a concentration-inhibition curve. Lower therefore signals higher potency.
